Data on ten molecules can be found in PubChem BioAssay AID1963852 (Molecular Pharmacology Branch, DTP, NCI, 2024).

SMILES strings stand for the structures. Where “and” joins values, the source holds several entries; their conditions need not be identical. Identical values can stand only once.

The test system of this assay is 282377-053-R-J1-PDC complex spheroid viability. Nature of the assay: Anticancer human tumor 282377-053-R-J1-PDC patient-derived colon adenocarcinoma cell line growth inhibition [POLQ]. The note with it: for viability, T/C: stronger effect = lower value. The procedure:
Multicellular complex tumor spheroid response to Polymerase (POL) inhibitors (novobiocin, ART-558, RP6685) in combination with a variety of drugs and investigational agents in selected tumor cell lines
The POL inhibitors (novobiocin, ART-558, and RP6685) were evaluated both individually and in combination with standard of care and investigational anticancer small molecules within a complex spheroid model of solid tumors. . Complex spheroids include a stromal component modeled by human endothelial cells (HUVEC) and fibroblasts modeled by human mesenchymal stem cells (MSCs). The concentration ranges selected for each drug and investigational agent were based upon clinically achievable concentrations if the clinical Cmax of the agent was known.
Compounds. The drugs and investigational agents: novobiocin (NSC847541), ART-558 (NSC835418), RP-6685 (NSC848927), peposertib (NSC802822), ceralasertib (NSC780249), elimusertib (NSC800525), camonsertib (NSC841442), AZD-1390 (NSC803789), olaparib (NSC753686), talazoparib (NSC767125), rucaparib (NSC756644), sotorasib (NSC818433), MRTX-1133 (NSC836407), SN-38 (NSC673596), topotecan (NSC609699), epotoside (NSC141540), doxorubicin (NSC123127), gemcitabine (NSC613327), 5-fluorouracil (NSC19893), paclitaxel (NSC125973), vemurafenib (NSC761431), MSA-2 (NSC828583), SN-011 (NSC837082), adavosertib (NSC754352), prexasertib (NSC758257), carboplatin (NSC241240) and oxaliplatin (NSC266046), were obtained from the National Cancer Institute (NCI) Developmental Therapeutics Program Chemical Repository (21). The FDA-approved anticancer drug set is available from the Developmental Therapeutics Program at https://dtp.cancer.gov/organization/dscb/obtaining/. […] The stock solutions were prepared in dimethyl sulfoxide (DMSO, Sigma-Aldrich, St. Louis, MO, cat. D2650), except for the platinum compounds which were prepared in saline (Quality Biological, Gaithersburg, MD, cat. 114-055-101), at 800-fold the tested concentration and stored at -70 degrees C prior to their use. All drugs and investigational agents were tested over a range starting from a high concentration at or near the clinical Cmax and decreasing in half-log increments. If the clinical Cmax for an agent had not been determined, the highest concentration tested was 10 microM, except for SN-38, which was tested at a high concentration of 1 microM.
Cell Culture. All cells were maintained in an incubator at 37 degrees C and 5% CO2 with 95% humidity. The PDC lines were cultured according to standard operating procedures established by the NCI PDMR (https://pdmr.cancer.gov). Table 3 of the manuscript, lists the cell lines along with the number of the three cell types plated to form the mct-spheroids and media for tumor cell growth. After thawing, all PDC lines, except 997537-175-T-J1-PDC and 415267-285-R-J2-PDC, were cultured in Matrigel-coated flasks prepared with a working solution of 1X Ham's F-12 nutrient mix, without supplementation (Thermo Fisher Scientific, cat. 11765054), 100 U/mL penicillin-streptomycin (Thermo Fisher Scientific, cat. 15140122), and 2.5% Matrigel (Corning Inc., Corning, NY, cat. 354248) for the first three passages. The two PDC lines 997537-175-T-J1-PDC and 415267-285-R-J2-PDC were cultured on uncoated flasks. The 857933-349-R-J2-PDC line was cultured in 6C/Colon 1B media containing advanced DMEM/F-12 (Thermo Fisher Scientific, cat. 12634028), 10 mM HEPES (Thermo Fisher Scientific, cat. 15630080), 1X GlutaMAX supplement (Thermo Fisher Scientific, cat. 35050061), 0.1 mg/mL primocin (InvivoGen, San Diego, CA, cat. ant-pm-2), 10% defined fetal bovine serum, heat inactivated (HyClone Laboratories Inc., Logan, UT, cat. SH30070.03HI), 50% L-WRN conditioned media (ATCC, cat. CRL-3276), 1.25 mM N-Acetyl-L-cysteine (Sigma-Aldrich, cat. A9165), 10 mM nicotinamide (Sigma-Aldrich, cat. N0636), 1X B-27 supplement (Thermo Fisher Scientific, cat. 17504044), 1X N-2 supplement (Thermo Fisher Scientific, cat. […]
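Further: spheroids exposed to compounds for seven days.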

`COC1C(OC(N)=O)C(O)C(Oc2ccc3c(O)c(NC(=O)c4ccc(O)c(CC=C(C)C)c4)c(=O)oc3c2C)OC1(C)C` (stereo unspecified): the viability, T/C was 94.6% [middle of 13 runs] (compound 0.0316 µM); 105% [middle of 13 runs] (compound 0.316 µM); 101% [middle of 13 runs] (compound 1 µM); 101% [middle of 13 runs] (compound 3.16 µM); 101% [middle of 13 runs] (compound 10 µM). The IC50 (compound alone, run of 10/31/2023) was greater than 10 µM.
For the molecule `COc1cc(C2c3cc4c(cc3C(OC3OC5COC(C)OC5C(O)C3O)C3COC(=O)C23)OCO4)cc(OC)c1O` (stereo unspecified), the viability, T/C runs as follows: (compound 0.0316 µM) 86.7% and 90% and 76.8%; (compound 0.1 µM) 108% and 96.2% and 104%; (compound 0.316 µM) 94.2% and 108% and 83%; (compound 1 µM) 124% and 104% and 96.8%; (compound 3.16 µM) 82.7% and 105% and 70.8%; (compound 10 µM) 58% and 81.8% and 50.9%. In addition, where the note is “curve of compound”, the IC50 was greater than 10 µM.
In the case of `COc1ccc([C@@H](O)c2cc(-c3ncnc4cc(N5CCOCC5)ccc34)c(F)cc2Cl)nn1`, the viability, T/C runs as follows: (compound 0.0316 µM) 95.7% and 94.3% and 98.1%; (compound 0.1 µM) 92.2% and 99.3% and 91.8%; (compound 0.316 µM) 112% and 94.1% and 106%; (compound 1 µM) 88.9% and 98.7% and 102%; (compound 3.16 µM) 82.5% and 101% and 87.2%; (compound 10 µM) 71.8% and 84.8% and 82.2%. Moreover, the IC50 (curve of compound) was greater than 10 µM.
Consider `COc1cccc(OCCCN)c1-c1cc(Nc2cnc(C#N)cn2)n[nH]1`, for which the viability, T/C runs as follows: (compound 0.00316 µM) 107% and 99.4% and 101%; (compound 0.01 µM) 94.1% and 89.1% and 85.9%; (compound 0.0316 µM) 76.9% and 82.1% and 72.1%; (compound 0.1 µM) 49.5% and 74.7% and 75.6%; (compound 0.316 µM) 37.2% and 63.1% and 52.5%; (compound 1 µM) 26.8% and 44% and 43.3%. Further, the IC50 (curve of compound) was 0.112 µM and 0.731 µM and 0.534 µM.
In the case of `COc1cccc2c1C(=O)c1c(O)c3c(c(O)c1C2=O)CC(O)(C(=O)CO)CC3OC1CC(N)C(O)C(C)O1` (stereo unspecified), the viability, T/C was 98.8% and 96% and 104% (compound 0.0316 µM); 83.9% and 92.9% and 87.7% (compound 0.1 µM); 62.9% and 125% and 50.8% (compound 0.316 µM); 17.3% and 111% and 20.5% (compound 1 µM); 0.93% and 18.7% and 1.37% (compound 3.16 µM); 2.95% and 3.23% and 2.45% (compound 10 µM). Also, the IC50 (curve of compound) is 0.421 µM and 2.09 µM and 0.336 µM.
On to `Cn1ncnc1[C@H]1c2n[nH]c(=O)c3cc(F)cc(c23)N[C@@H]1c1ccc(F)cc1`, for which the viability, T/C is 97.4% and 91% and 104% (compound 0.000316 µM); 95.4% and 95.3% and 93.1% (compound 0.001 µM); 76.2% and 90.7% and 93.6% (compound 0.00316 µM); 108% (2×) and 102% (compound 0.01 µM); 110% and 98.3% and 105% (compound 0.0316 µM); 90.5% and 95.2% and 106% (compound 0.1 µM). In addition, the IC50 (curve of compound) is greater than 0.1 µM.
Turning to `Nc1ccc(C#CCN(C(=O)Cc2ncc(C(F)(F)F)cc2C(F)(F)F)c2ccc(F)cc2)nn1`, the viability, T/C was 92.4% [middle of 13 runs] (compound 0.0316 µM), 99.5% [middle of 12 runs] (compound 1 µM), 102% [middle of 13 runs] (compound 3.16 µM) and 114% [middle of 13 runs] (compound 10 µM). The 50% inhibitory concentration (IC50) (compound alone, run of 11/06/2023) was greater than 10 µM.
As to `Nc1ccn(C2OC(CO)C(O)C2(F)F)c(=O)n1` (stereo unspecified), the viability, T/C is, setting by setting: (compound 0.0316 µM) 74% and 105% and 75.7%; (compound 0.1 µM) 45.1% and 88.6% and 54.5%; (compound 0.316 µM) 30.1% and 97.8% and 29.1%; (compound 1 µM) 23.5% and 84.4% and 33.9%; (compound 3.16 µM) 23.9% and 84% and 18.8%; (compound 10 µM) 13.4% and 71.6% and 11.1%.
With `O=C(c1cc(Cc2n[nH]c(=O)c3ccccc23)ccc1F)N1CCN(C(=O)C2CC2)CC1`, the viability, T/C was 96.2% and 95.6% and 96.1% (compound 0.0316 µM); 94.5% and 97.4% and 107% (compound 0.1 µM); 118% and 105% and 95.8% (compound 0.316 µM); 122% and 110% and 114% (compound 1 µM); 100% and 97.5% and 110% (compound 3.16 µM); 95.8% and 105% and 110% (compound 10 µM). Also, under “curve of compound”, the IC50 was greater than 10 µM.
In the case of `O=c1[nH]cc(F)c(=O)[nH]1`, the viability, T/C reads like this: (compound 0.0316 µM) 91.8% and 103% and 97.7%; (compound 0.1 µM) 109% and 108% and 95%; (compound 0.316 µM) 86.7% and 107% and 114%; (compound 1 µM) 96.3% and 108% and 78.9%; (compound 3.16 µM) 68.2% and 98.1% and 75.9%; (compound 10 µM) 71% and 93.2% and 71.8%. For the same molecule, the 50% inhibitory concentration (IC50) (curve of compound) is greater than 10 µM.

A word on the viability, T/C: it is the result in the treated group divided by that in the control group, in per cent. The term IC50 denotes the point on the concentration scale where inhibition reaches its midpoint.
